Measured values published in patent publication US9527856B2, “Oxindole compounds carrying a CO-bound spiro substituent and use thereof for treating vasopressin-related diseases” (AbbVie Deutschland GmbH & Co. KG, priority 2014, dated 2016).

How the values were obtained:
[1] = molecular target: T1, human vasopressin V1b receptor (Homo sapiens, UniProt P47901); test: biochemical; conditions: Ki(h-V1b)* [nM], CHO-K1 cell membranes, displacement of 3H-AVP
T1 sequence (P47901 1-424): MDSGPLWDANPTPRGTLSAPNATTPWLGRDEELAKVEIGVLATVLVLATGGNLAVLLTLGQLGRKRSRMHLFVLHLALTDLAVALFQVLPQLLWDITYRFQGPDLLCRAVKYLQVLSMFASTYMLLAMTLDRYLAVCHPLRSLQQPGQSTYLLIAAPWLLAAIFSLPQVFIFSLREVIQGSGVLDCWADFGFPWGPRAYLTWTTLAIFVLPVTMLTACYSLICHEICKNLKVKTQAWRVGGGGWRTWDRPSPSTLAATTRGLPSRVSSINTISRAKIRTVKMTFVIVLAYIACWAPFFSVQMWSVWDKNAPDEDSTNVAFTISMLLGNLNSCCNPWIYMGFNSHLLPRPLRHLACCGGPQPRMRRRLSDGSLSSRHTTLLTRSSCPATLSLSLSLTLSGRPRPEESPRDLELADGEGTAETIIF

[2] = molecular target: human vasopressin V1a receptor (Homo sapiens, UniProt P37288); test: Vasopressin V1a receptor binding assay; conditions: selectivity for human V1b over human V1a, quotient of binding constants
Chain of human vasopressin V1a receptor (P37288 whole entry): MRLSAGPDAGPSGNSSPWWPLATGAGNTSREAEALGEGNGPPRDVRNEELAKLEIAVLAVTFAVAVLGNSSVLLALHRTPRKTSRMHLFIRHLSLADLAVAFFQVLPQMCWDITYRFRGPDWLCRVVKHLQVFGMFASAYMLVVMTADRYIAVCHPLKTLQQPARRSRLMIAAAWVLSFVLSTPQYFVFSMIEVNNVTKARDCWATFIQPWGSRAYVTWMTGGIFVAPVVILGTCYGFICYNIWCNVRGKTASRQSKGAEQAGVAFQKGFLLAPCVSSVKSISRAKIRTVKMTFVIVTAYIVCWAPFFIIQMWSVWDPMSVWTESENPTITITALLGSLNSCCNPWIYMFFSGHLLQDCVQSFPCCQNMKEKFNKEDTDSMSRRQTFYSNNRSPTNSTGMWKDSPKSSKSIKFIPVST

SMILES | Ki [1] [nM] | Ki(h-V1a)/Ki(h-V1b) [2]
CCOc1ccccc1[C@]1(NC(=O)N2CC3(C2)CN(C2CCN(C(C)C)CC2)C3)C(=O)N(S(=O)(=O)c2ccc(OC)cc2)c2ccc(C#N)cc21 [Example 40, N-[(3S)-5-Cyano-3-(2-ethoxyphenyl)-1-(4-methoxyphenyl)sulfonyl-2-oxo-indolin-3-yl]-2-(1-isopropyl-4-piperidyl)-2,6-diazaspiro[3.3]heptane-6-carboxamide] | 1 to 10 | +++ (>75)
CCOc1ncccc1C1(NC(=O)C2CC3(C2)CC(N2CC4(CNC4)C2)C3)C(=O)N(S(=O)(=O)c2ccc(OC)cc2OC)c2ccc(C#N)cc21 (stereo not shown) [Example 48, N-(5-Cyano-1-(2,4-dimethoxyphenylsulfonyl)-3-(2-ethoxypyridin-3-yl)-2-oxoindolin-3-yl)-6-(2,6-diazaspiro[3.3]heptan-2-yl)spiro[3.3]heptane-2-carboxamide 2,2,2-trifluoroacetate] | 1 to 10 | –
CCOc1ncccc1[C@]1(NC(=O)N2CC3(C2)CN(C2CCN(C)CC2)C3)C(=O)N(S(=O)(=O)c2ccccc2OC)c2ccc(C#N)cc21 [Example 32, N-[(3S)-5-Cyano-3-(2-ethoxy-3-pyridyl)-1-(2-methoxyphenyl)sulfonyl-2-oxo-indolin-3-yl]-2-(1-methyl-4-piperidyl)-2,6-diazaspiro[3.3]heptane-6-carboxamide] | 10 to 100 | ++ (25-75)
CCOc1ncccc1[C@]1(NC(=O)N2CC3(CC(OCCN4CCOCC4)C3)C2)C(=O)N(S(=O)(=O)c2ccc(OC)cc2)c2ccc(C#N)cc21 [Example 21A, N-[(3S)-5-Cyano-3-(2-ethoxy-3-pyridyl)-1-(4-methoxyphenyl)sulfonyl-2-oxo-indolin-3-yl]-2-(2-morpholinoethoxy)-6-azaspiro[3.3]heptane-6-carboxamide] | 10 to 100 | +++ (>75)
CCOc1ncccc1[C@]1(NC(=O)N2CC3(CN(CCN4CCOCC4)C3)C2)C(=O)N(S(=O)(=O)c2ccc(OC)cc2OC)c2ccc(C#N)cc21 [Example 7, N-[(3S)-5-Cyano-1-(2,4-dimethoxyphenyl)sulfonyl-3-(2-ethoxy-3-pyridyl)-2-oxo-indolin-3-yl]-2-(2-morpholinoethyl)-2,6-diazaspiro[3.3]heptane-6-carboxamide] | 1 to 10 | ++ (25-75)
CCOc1ncccc1[C@]1(NC(=O)N2CC3(CN(CCN4CCOCC4)C3)C2)C(=O)N(S(=O)(=O)c2ccc(OC)cc2F)c2ccc(C#N)cc21.O=C(O)C(F)(F)F [Example 6, N-[(3S)-5-Cyano-3-(2-ethoxy-3-pyridyl)-1-(2-fluoro-4-methoxy-phenyl)sulfonyl-2-oxo-indolin-3-yl]-2-(2-morpholinoethyl)-2,6-diazaspiro[3.3]heptane-6-carboxamide; 2,2,2-trifluoroacetic acid] | 1 to 10 | ++ (25-75)
CCOc1ncccc1[C@]1(NC(=O)N2CC3(CN(CCN4CCOCC4)C3)C2)C(=O)N(S(=O)(=O)c2ccc(F)cc2)c2ccc(C#N)cc21 [Example 8, N-[(3S)-5-Cyano-3-(2-ethoxy-3-pyridyl)-1-(4-fluorophenyl)sulfonyl-2-oxo-indolin-3-yl]-2-(2-morpholinoethyl)-2,6-diazaspiro[3.3]heptane-6-carboxamide] | 10 to 100 | ++ (25-75)
CCOc1ncccc1[C@]1(NC(=O)N2CC3(CN(CCN4CCOCC4)C3)C2)C(=O)N(S(=O)(=O)c2ccc(C)cc2)c2ccc(C#N)cc21 [Example 16, N-[(3S)-5-Cyano-3-(2-ethoxy-3-pyridyl)-2-oxo-1-(p-tolylsulfonyl)indolin-3-yl]-2-(2-morpholinoethyl)-2,6-diazaspiro[3.3]heptane-6-carboxamide] | – | ++ (25-75)
CCOc1ncccc1[C@]1(NC(=O)N2CC3(CN(CCN4CCOCC4)C3)C2)C(=O)N(S(=O)(=O)c2ccc(OC)cn2)c2ccc(C#N)cc21 [Example 4, N-[(3S)-5-Cyano-3-(2-ethoxy-3-pyridyl)-1-[(5-methoxy-2-pyridyl)sulfonyl]-2-oxo-indolin-3-yl]-2-(2-morpholinoethyl)-2,6-diazaspiro[3.3]heptane-6-carboxamide] | 1 to 10 | +++ (>75)
CCOc1ncccc1[C@]1(NC(=O)N2CC3(C2)CN(C2COC2)C3)C(=O)N(S(=O)(=O)c2ccc(F)cc2)c2ccc(C#N)cc21 [Example 31, N-[(3S)-5-Cyano-3-(2-ethoxy-3-pyridyl)-1-(4-fluorophenyl)sulfonyl-2-oxo-indolin-3-yl]-2-(oxetan-3-yl)-2,6-diazaspiro[3.3]heptane-6-carboxamide] | 10 to 100 | –
CCOc1ncccc1[C@]1(NC(=O)C2CC3(CNC3)C2)C(=O)N(S(=O)(=O)c2ccc(OC)cc2)c2ccc(C#N)cc21 [Example 44, N-[(3S)-5-Cyano-3-(2-ethoxy-3-pyridyl)-1-(4-methoxyphenyl)sulfonyl-2-oxo-indolin-3-yl]-6-azaspiro[3.3]heptane-2-carboxamide] | 10 to 100 | –
CCOc1ncccc1C1(NC(=O)C2CCC3(CC2)CCN(C2CCNCC2)CC3)C(=O)N(S(=O)(=O)c2ccc(OC)cc2OC)c2ccc(C#N)cc21 (stereo not shown) [Example 47, N-(5-Cyano-1-(2,4-dimethoxyphenylsulfonyl)-3-(2-ethoxypyridin-3-yl)-2-oxoindolin-3-yl)-3-(piperidin-4-yl)-3-azaspiro[5.5]undecane-9-carboxamide 2,2,2-trifluoroacetate] | 1 to 10 | –

The next lines start with the values.

Ki [1] [nM] | Ki(h-V1a)/Ki(h-V1b) [2] | SMILES
10 to 100 | ++ (25-75) | CCOc1ncccc1C1(NC(=O)N2CC3(CNC3)C2)C(=O)N(S(=O)(=O)c2ccc(OC)cc2OC)c2ccc(C#N)cc21.O=C(O)C(F)(F)F (stereo not shown) [Example 58, N-(5-Cyano-1-(2,4-dimethoxyphenylsulfonyl)-3-(2-ethoxypyridin-3-yl)-2-oxoindolin-3-yl)-2,6-diazaspiro[3.3]heptane-2-carboxamide 2,2,2-trifluoroacetate]
10 to 100 | – | CCOc1ncccc1C1(NC(=O)C2CC3(CNC3)C2)C(=O)N(S(=O)(=O)c2ccc(OC)cc2OC)c2ccc(C#N)cc21 (stereo not shown) [Example 57, N-(5-Cyano-1-(2,4-dimethoxyphenylsulfonyl)-3-(2-ethoxypyridin-3-yl)-2-oxoindolin-3-yl)-2-azaspiro[3.3]heptane-6-carboxamide 2,2,2-trifluoroacetate]
1 to 10 | – | CCOc1ncccc1C1(NC(=O)C2CCC3(CCNCC3)CC2)C(=O)N(S(=O)(=O)c2ccc(OC)cc2OC)c2ccc(C#N)cc21 (stereo not shown) [Example 52, N-(5-Cyano-1-(2,4-dimethoxyphenylsulfonyl)-3-(2-ethoxypyridin-3-yl)-2-oxoindolin-3-yl)-3-azaspiro[5.5]undecane-9-carboxamide 2,2,2-trifluoroacetate]
1 to 10 | ++ (25-75) | CCOc1ncccc1C1(NC(=O)N2CC3(CCNCC3)C2)C(=O)N(S(=O)(=O)c2ccc(OC)cc2OC)c2ccc(C#N)cc21.O=C(O)C(F)(F)F (stereo not shown) [Example 60, N-(5-Cyano-1-(2,4-dimethoxyphenylsulfonyl)-3-(2-ethoxypyridin-3-yl)-2-oxoindolin-3-yl)-2,7-diazaspiro[3.5]nonane-2-carboxamide 2,2,2-trifluoroacetate]
10 to 100 | – | CCOc1ncccc1C1(NC(=O)N2CC3(CCN(C)CC3)C2)C(=O)N(S(=O)(=O)c2ccc(OC)cc2OC)c2ccc(C#N)cc21 (stereo not shown) [Example 55, N-(5-Cyano-1-(2,4-dimethoxyphenylsulfonyl)-3-(2-ethoxypyridin-3-yl)-2-oxoindolin-3-yl)-7-methyl-2,7-diazaspiro[3.5]nonane-2-carboxamide 2,2,2-trifluoroacetate]
10 to 100 | – | CCOc1ncccc1C1(NC(=O)N2CCC3(CCN(C)CC3)CC2)C(=O)N(S(=O)(=O)c2ccc(OC)cc2OC)c2ccc(C#N)cc21 (stereo not shown) [Example 53, N-(5-Cyano-1-(2,4-dimethoxyphenylsulfonyl)-3-(2-ethoxypyridin-3-yl)-2-oxoindolin-3-yl)-9-methyl-3,9-diazaspiro[5.5]undecane-3-carboxamide 2,2,2-trifluoroacetate]
10 to 100 | – | CCOc1ncccc1C1(NC(=O)N2CCC3(CC2)CN(C2CCNCC2)C3)C(=O)N(S(=O)(=O)c2ccc(OC)cc2OC)c2ccc(C#N)cc21 (stereo not shown) [Example 50, N-(5-Cyano-1-(2,4-dimethoxyphenylsulfonyl)-3-(2-ethoxypyridin-3-yl)-2-oxoindolin-3-yl)-2-(piperidin-4-yl)-2,7-diazaspiro[3.5]nonane-7-carboxamide bis-2,2,2-trifluoroacetate]
< 1 | – | CCOc1ncccc1C1(NC(=O)C2CC3(C2)CC(N2CCN(CC)CC2)C3)C(=O)N(S(=O)(=O)c2ccc(OC)cc2OC)c2ccc(C#N)cc21 (stereo not shown) [Example 54, N-(5-Cyano-1-(2,4-dimethoxyphenylsulfonyl)-3-(2-ethoxypyridin-3-yl)-2-oxoindolin-3-yl)-6-(4-ethylpiperazin-1-yl)spiro[3.3]heptane-2-carboxamide 2,2,2-trifluoroacetate]
10 to 100 | – | CCOc1ncccc1C1(NC(=O)N2CCC3(CCN(CC)CC3)CC2)C(=O)N(S(=O)(=O)c2ccc(OC)cc2OC)c2ccc(C#N)cc21 (stereo not shown) [Example 56, N-(5-Cyano-1-(2,4-dimethoxyphenylsulfonyl)-3-(2-ethoxypyridin-3-yl)-2-oxoindolin-3-yl)-9-ethyl-3,9-diazaspiro[5.5]undecane-3-carboxamide 2,2,2-trifluoroacetate]
10 to 100 | – | CCOc1ncccc1C1(NC(=O)N2CCC3(CC2)CNC3)C(=O)N(S(=O)(=O)c2ccc(OC)cc2OC)c2ccc(C#N)cc21 (stereo not shown) [Example 51, N-(5-Cyano-1-(2,4-dimethoxyphenylsulfonyl)-3-(2-ethoxypyridin-3-yl)-2-oxoindolin-3-yl)-2,7-diazaspiro[3.5]nonane-7-carboxamide 2,2,2-trifluoroacetate]
